How the values were obtained:
[1] = Loss on drying (form anhydrous/hydrate of ciprofloxacin); assay type: physicochemical; settings: solid dried 40° C. oven 24 hours, then 125° C. oven one hour; weight loss due to 125° C.
Description: To assess the form of ciprofloxacin samples described in the present disclosure, a comparison experiment is conducted to evaluate the sample's loss of weight upon heating. […] The conditions and results of the experiment are summarized below:
Experimental Setup—Loss on Drying: • If suspension: Pipette cipro suspension onto filter on vacuum filter flask • Transfer filter/dry powder to 40° C. oven, hold 24 hours • Transfer solid to pre-weighed aluminum pan and weigh solid • Transfer pan to 125° C. oven, hold one hour • Weigh again and determine weight loss due to 125° C.

[2] = Particle size (D90) of ciprofloxacin; assay type: physicochemical
Text: The final drug product has particle size of D90 of about 25 μm. […] In some embodiments, it is the use of a lower sterilization temperature and homogenization of the suspension during the sterilization process that contributes to the particle size distribution of ciprofloxacin in the suspension, and in the final product.

Compound	Weight Loss on Drying [1] [%]	particle size D90 ([2]; listed as Ciprofloxacin free base anhydrous API powder)	particle size D90 ([2]; listed as hydrate form)
O=C(O)c1cn(C2CC2)c2cc(N3CCNCC3)c(F)cc2c1=O [Sample 1, Ciprofloxacin]	0.1	under 15 μm	
O=C(O)c1cn(C2CC2)c2cc(N3CCNCC3)c(F)cc2c1=O [Sample 2, Ciprofloxacin]	11.1		around 60 μm
